The record followed here is ChEMBL document CHEMBL5126621, “Modifying a Hydroxyl Patch in Glucagon-like Peptide 1 Produces Biased Agonists with Unique Signaling Profiles” (J Med Chem, 2022).

Active and inactive are the calls of the source. The calls are words filed in the database; no cut-off is given here. Where a SMILES comes first, the peptide text is derived from it. [ ]: non-standard residue; d: D form. Abu = CC[C@H](N)C(=O)O A value given as a limit tells only on which side of the number the result lay.

Data set [1] in a line: Drug uptake in human GLP-1R expressed in CHO cells coexpressing GFP assessed as drug internalization at 100 nM incubated for 30 mins by inverted microscopic analysis. The data set is classed as ADME, cell-based, Cricetulus griseus. The settings on record: chinese hamster, 0.5 h, 0.1 µM.
The target of data set [2] is T1, Glucagon-like peptide 1 receptor (Homo sapiens, UniProt P43220). Nature of the data set: Agonist activity at human GLP-1R expressed in CHO cells coexpressing GFP assessed as receptor internalization at 10 uM by confocal fluorescence microscopy. Type of data set: functional, cell-based. The settings on record: filed as agonist.
Data set [3] deals with T1, Glucagon-like peptide 1 receptor. The data set is described as follows: Agonist activity at human GLP-1R expressed in CHO cells coexpressing GFP assessed as increase in glucagon-like peptide 1-induced receptor internalization at 10 uM by confocal fluorescence microscopy. Type of data set: functional, cell-based. The settings on record: filed as agonist, time 30.0 min.

Data set [4] shares this target.
Description: Agonist activity at human GLP-1R expressed in CHO cells coexpressing beta-arrestin-2 assessed as increase in beta arrestin-2 recruitment incubated for 1 hr by chemiluminescence based pathHunter assay
The target is the same in data set [5]. This is another data set of the same source.
Description: Agonist activity at human GLP-1R expressed in CHO cells coexpressing beta-arrestin-2 assessed as stimulation intracellular calcium mobilization measured after 180 secs by Fluo-3-AM dye based fluorescence assay
The target is the same in data set [6]. The source holds these as a separate data set.
Description: Agonist activity at human GLP-1R expressed in CHO cells coexpressing beta-arrestin-2 assessed as reduction in cAMP accumulation incubated for 2 hrs under dark condition by LANCE cAMP assay
For data set [7] the target is unchanged. This is another data set of the same source.
Data set [8] shares this target. The source holds these as a separate data set.
Description: Agonist activity at human GLP-1R assessed as increase in ERK1/2 phosphorylation at Thr202/Tyr204 residues incubated for 20 mins by AlphaLISA assay
The target is the same in data set [9]. The data set is described as follows: Receptor residence time at human GLP-1R expressed in CHO cells coexpressing beta-arrestin-2 assessed as inhibition of glucagon-like peptide 1-induced calcium mobilization by measuring half life at 100 uM preincubated for 30 mins followed by glucagon-like peptide 1 addition measured upto 4 hrs by calcium mobilization assay. The settings on record: filed as agonist. Type of data set: functional, cell-based. On the technique in general: Calcium flux is commonly read through the fluorescence of an indicator in the cells.

For data set [10], the system named is INS1. Nature of the data set: Induction of glucose-stimulated insulin secretion in rat INS1 cells measured after 1 to 16 hrs by HTRF assay. The settings on record: dose 10-1e+07 pM, time lower 1.0 hrs, time upper […], DDE = dose-dependent effect. Type of data set: functional, cell-based. Background: Time-resolved FRET reads energy transfer from a long-lived donor to a nearby acceptor.

For data set [11], the system named is Mus musculus. The data set is described as follows: Reduction in blood glucose level in intraperitoneal glucose injected C57BL/6J mouse at 0.1 mg/kg, ip administered as single dose measured 20 to 60 mins by glucose tolerance test. The data set is classed as functional, organism-based. The settings on record: time 20-60 min.
Data set [12] deals with Mus musculus. Nature of the data set: Reduction in blood glucose level in intraperitoneal glucose injected C57BL/6J mouse by measuring glucose area under curve at 0.1 mg/kg, ip administered as single dose measured in 90 mins by glucose tolerance test. The data set is classed as functional, organism-based.
For data set [13], the target named is T1, Glucagon-like peptide 1 receptor. Nature of the data set: Binding affinity to human GLP-1R expressed in CHO cells coexpressing beta-arrestin-2 assessed as fold increase in affinity incubated for 1 hr in presence of N-(tert-butyl)-6,7-dichloro-3-(methylsulfonyl)quinoxalin-2-amine by time-resolved fluorescence assay. Type of data set: cell-based.
In data set [14] the test system is Mus musculus. The data set is described as follows: Induction of plasma insulin level in C57BL/6J mouse assessed as increase in insulin level at 0.1 mg/kg, ip administered as single dose measured at 10 mins in presence of glucose. The data set is classed as functional, organism-based.

T1 sequence (P43220 whole entry): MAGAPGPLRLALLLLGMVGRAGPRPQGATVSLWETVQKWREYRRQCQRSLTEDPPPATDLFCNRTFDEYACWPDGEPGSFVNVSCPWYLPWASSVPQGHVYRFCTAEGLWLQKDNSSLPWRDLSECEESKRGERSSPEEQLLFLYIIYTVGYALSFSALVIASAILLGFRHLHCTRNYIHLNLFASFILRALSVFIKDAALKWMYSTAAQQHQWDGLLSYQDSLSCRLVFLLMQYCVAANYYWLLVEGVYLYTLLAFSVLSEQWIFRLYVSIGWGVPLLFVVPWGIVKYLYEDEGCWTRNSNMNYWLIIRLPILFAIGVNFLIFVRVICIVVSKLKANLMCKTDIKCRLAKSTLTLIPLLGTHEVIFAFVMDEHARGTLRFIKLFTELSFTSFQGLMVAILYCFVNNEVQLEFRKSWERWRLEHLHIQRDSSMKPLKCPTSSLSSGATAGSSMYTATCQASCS

For `CC[C@H](C)[C@H](NC(=O)[C@H](Cc1ccccc1)NC(=O)[C@H](CCC(=O)O)NC(=O)[C@H](CCCCN)NC(=O)[C@H](C)NC(=O)[C@H](C)NC(=O)[C@H](CCC(N)=O)NC(=O)CNC(=O)[C@H](CCC(=O)O)NC(=O)[C@H](CC(C)C)NC(=O)[C@H](Cc1ccc(O)cc1)NC(=O)[C@H](CO)NC(=O)[C@H](CO)NC(=O)[C@@H](NC(=O)[C@H](CC(=O)O)NC(=O)[C@H](CO)NC(=O)[C@@H](NC(=O)[C@H](Cc1ccccc1)NC(=O)[C@@H](NC(=O)CNC(=O)[C@H](CCC(=O)O)NC(=O)[C@H](C)NC(=O)[C@@H](N)Cc1c[nH]cn1)[C@@H](C)O)[C@@H](C)O)C(C)C)C(=O)N[C@@H](C)C(=O)N[C@@H](Cc1c[nH]c2ccccc12)C(=O)N[C@@H](CC(C)C)C(=O)N[C@H](C(=O)N[C@@H](CCCCN)C(=O)NCC(=O)N[C@@H](CCCNC(=N)N)C(N)=O)C(C)C`, the Drug uptake result in data set [1] is “Active”.
With `CC(C)(C)Nc1nc2cc(Cl)c(Cl)cc2nc1S(C)(=O)=O`, the outcome in data set [2] and in data set [3] was Active.
Turning to `CC[S+]([O-])c1nc(-c2cccc(OCc3ccccc3)c2)cc(C(F)(F)F)n1` (stereo unspecified), the result in data set [2] and in [3] was Active.
With `CC[C@H](NC(=O)[C@H](CC)NC(=O)[C@@H](NC(=O)[C@H](CC(=O)O)NC(=O)[C@H](CC)NC(=O)[C@@H](NC(=O)[C@H](Cc1ccccc1)NC(=O)[C@@H](NC(=O)CNC(=O)[C@H](CCC(=O)O)NC(=O)[C@H](C)NC(=O)[C@@H](N)Cc1c[nH]cn1)C(C)C)[C@@H](C)O)C(C)C)C(=O)N[C@@H](Cc1ccc(O)cc1)C(=O)N[C@@H](CC(C)C)C(=O)N[C@@H](CCC(=O)O)C(=O)NCC(=O)N[C@@H](CCC(N)=O)C(=O)N[C@@H](C)C(=O)N[C@@H](C)C(=O)N[C@@H](CCCCN)C(=O)N[C@@H](CCC(=O)O)C(=O)N[C@@H](Cc1ccccc1)C(=O)N[C@H](C(=O)N[C@@H](C)C(=O)N[C@@H](Cc1c[nH]c2ccccc12)C(=O)N[C@@H](CC(C)C)C(=O)N[C@H](C(=O)N[C@@H](CCCCN)C(=O)NCC(=O)N[C@@H](CCCNC(=N)N)C(N)=O)C(C)C)[C@@H](C)CC` (H-HAEGVFT[Abu]DV[Abu][Abu]YLEGQAAKEFIAWLVKGR-NH2), the EC50 was above 10000 nM in data set [4], above 100000 nM in [5], 5.01 nM in data set [6] and above 10000 nM in [8]. For the same compound, the midpoint of inhibition in data set [7], the IC50, lay at 398 nM.
H-HAEGAFTADVAAYLEGQAAKEFIAWLVKGR-NH2: the EC50 was above 10000 nM in data set [4], above 100000 nM in [5], 0.0398 nM in data set [6] and above 100000 nM in [8]. In [9], the T1/2 turned out to be 4 h. Also, the Activity result in [10] was “Dde”. In addition, the outcome in data set [11], in data set [12] and in data set [14] was Active. Also, the fold change (FC) in data set [13] amounted to 10. The IC50 in [7] was 251 nM. The Drug uptake entry in data set [1] was “Active”.
For H-HAEGTFTADVAAYLEGQAAKEFIAWLVKGR-NH2, the EC50 in data set [4] was 158 nM; in data set [5], 794 nM; in data set [6] it was 0.00501 nM; in [8] it was above 10000 nM. The outcome in data set [11], in data set [12] and in data set [14] was Active. Besides, the midpoint of inhibition in data set [7], the IC50, lay at 251 nM. The Drug uptake result in data set [1] was “Active”.

For orientation: EC50 means the concentration that produces a half-maximal response. A low value points to higher potency in that assay. Broadly, the IC50 is the point on the concentration scale where inhibition reaches its midpoint. A high value points to a need for much substance.
